biological target: T1, chicken gizzard smooth muscle myosin subfragment-1 chemically crosslinked to cardiac or skeletal actin (Gallus gallus, UniProt P10587); experiment: Smooth muscle myosin ATPase dose response assay (pyruvate kinase/horseradish peroxidase/pyruvate oxidase-coupled, amplex red fluorescence); format: biochemical; settings: read-out: IC50 Arithmetic Mean
T1 construct: chicken gizzard smooth muscle myosin subfragment-1; from tissue; host or cells: chicken gizzard
Method in brief: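 Lead-optimization format: ATPase coupled via pyruvate kinase, pyruvate oxidase and peroxidase, pH 7.00 at 22° C, with 0.15 mM ATP, 100 mM KCl, 2 mM MgCl2, 2 mM phosphate and 0.1 mM amplex red (final). Crosslinked S1 titrated empirically for set hydrolysis rate; fluorescence (ex 480/em 615 nm) dose curves fit 4-parameter for IC50.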

T1 sequence (P02607 2-151): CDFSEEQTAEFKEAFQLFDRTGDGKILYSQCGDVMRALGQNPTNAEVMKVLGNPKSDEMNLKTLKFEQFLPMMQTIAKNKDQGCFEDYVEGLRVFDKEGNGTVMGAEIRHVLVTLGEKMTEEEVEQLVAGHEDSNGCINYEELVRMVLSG
T1 sequence (P10587 84-789): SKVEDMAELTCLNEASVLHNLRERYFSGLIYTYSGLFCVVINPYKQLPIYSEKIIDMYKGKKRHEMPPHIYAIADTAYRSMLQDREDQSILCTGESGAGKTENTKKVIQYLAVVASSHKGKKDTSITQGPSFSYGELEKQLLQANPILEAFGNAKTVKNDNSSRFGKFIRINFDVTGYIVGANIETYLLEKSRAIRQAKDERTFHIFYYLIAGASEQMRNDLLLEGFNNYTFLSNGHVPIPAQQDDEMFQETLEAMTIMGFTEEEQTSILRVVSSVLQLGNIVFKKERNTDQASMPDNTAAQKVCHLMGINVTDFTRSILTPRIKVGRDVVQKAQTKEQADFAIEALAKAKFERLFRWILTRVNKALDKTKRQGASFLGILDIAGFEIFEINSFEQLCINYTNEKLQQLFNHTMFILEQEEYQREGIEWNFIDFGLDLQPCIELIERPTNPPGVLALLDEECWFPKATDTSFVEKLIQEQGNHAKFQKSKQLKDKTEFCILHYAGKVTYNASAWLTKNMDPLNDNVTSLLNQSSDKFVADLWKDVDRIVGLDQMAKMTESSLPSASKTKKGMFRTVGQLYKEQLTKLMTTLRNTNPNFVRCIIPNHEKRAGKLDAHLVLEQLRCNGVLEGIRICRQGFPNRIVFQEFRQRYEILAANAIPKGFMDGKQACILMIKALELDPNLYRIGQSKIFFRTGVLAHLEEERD

SMILES | IC50
Cn1cc(-c2nc(NCCc3cccc(F)c3)c(C(=O)NCC(O)CO)cc2F)cn1 (centres unmarked) [N-(2,3-dihydroxypropyl)(5-fluoro-2-{[2-(3-fluorophenyl)ethyl]amino}-6-(1-methylpyrazol-4-yl)(3-pyridyl))carboxamide] | 0.307 µM
O=C(NCC(O)CO)c1cc(F)c(-c2cn[nH]c2)nc1NCCc1cccc(F)c1 (centres unmarked) [N-(2,3-dihydroxypropyl)(5-fluoro-2-{[2-(3-fluorophenyl)ethyl]amino}-6-pyrazol-4-yl(3-pyridyl))carboxamide] | 0.448 µM
CC(C)(N)CNC(=O)c1ccc(-c2ccccc2C#N)nc1NCCc1cccc(F)c1 [N-(2-amino-2-methylpropyl)(6-(2-cyanophenyl)-2-{[2-(3-fluorophenyl)ethyl]amino}(3-pyridyl))carboxamide] | 0.666 µM
N#Cc1ccccc1-c1ccc(C(=O)NCCN)c(NCCc2cccc(F)c2)n1 [N-(2-aminoethyl)(6-(2-cyanophenyl)-2-{[2-(3-fluorophenyl)ethyl]amino}(3-pyridyl))carboxamide] | 2.64 µM
NC(=O)CCNC(=O)c1ccc(-c2ccc(CO)s2)nc1NCCc1cccc(F)c1 [N-(2-carbamoylethyl)(2-{[2-(3-fluorophenyl)ethyl]amino}-6-[5-(hydroxymethyl)(2-thienyl)](3-pyridyl))carboxamide] | 0.549 µM
N#Cc1ccccc1-c1ccc(C(=O)NCCC(N)=O)c(NCCc2cccc(F)c2)n1 [N-(2-carbamoylethyl)(6-(2-cyanophenyl)-2-{[2-(3-fluorophenyl)ethyl]amino}(3-pyridyl))carboxamide] | 0.099 µM
N#Cc1ccccc1-c1ccc(C(=O)NCC(=O)NCCC(N)=O)c(NCCc2cccc(F)c2)n1 [N-(2-carbamoylethyl)-2-[(6-(2-cyanophenyl)-2-{[2-(3-fluorophenyl)ethyl]amino}(3-pyridyl))carbonylamino]acetamide] | 12.2 µM
CC(C)(CNC(=O)c1ccc(-c2ccccc2C#N)nc1NCCc1cccc(F)c1)NC=O [N-(2-carbonylamino-2-methylpropyl)(6-(2-cyanophenyl)-2-{[2-(3-fluorophenyl)ethyl]amino}(3-pyridyl))carboxamide] | 0.151 µM
N#Cc1ccccc1-c1ccc(C(=O)NCCNS(=O)(=O)CCN)c(NCCc2cccc(F)c2)n1 [N-(2-{[(2-aminoethyl)sulfonyl]amino}ethyl)(6-(2-cyanophenyl)-2-{[2-(3-fluorophenyl)ethyl]amino}(3-pyridyl))carboxamide] | 1.55 µM
N#Cc1ccccc1-c1ccc(C(=O)NC(CCN)C(N)=O)c(NCCc2cccc(F)c2)n1 (centres unmarked) [N-(3-amino-1-carbamoylpropyl)(6-(2-cyanophenyl)-2-{[2-(3-fluorophenyl)ethyl]amino}(3-pyridyl))carboxamide] | 1.91 µM
N#Cc1ccccc1-c1ccc(C(=O)NCC(CN)C(N)=O)c(NCCc2cccc(F)c2)n1 (centres unmarked) [N-(3-amino-2-carbamoylpropyl)(6-(2-cyanophenyl)-2-{[2-(3-fluorophenyl)ethyl]amino}(3-pyridyl))carboxamide] | 6.65 µM
N#Cc1ccccc1-c1ccc(C(=O)NCC(O)CN)c(NCCc2cccc(F)c2)n1 (centres unmarked) [N-(3-amino-2-hydroxypropyl)(6-(2-cyanophenyl)-2-{[2-(3-fluorophenyl)ethyl]amino}(3-pyridyl))carboxamide] | 4.81 µM
Cn1cc(-c2nc(NCCc3cccc(F)c3)c(C(=O)NCCCN)cc2F)cn1 [N-(3-aminopropyl)(5-fluoro-2-{[2-(3-fluorophenyl)ethyl]amino}-6-(1-methylpyrazol-4-yl)(3-pyridyl))carboxamide] | 3.96 µM
N#Cc1ccccc1-c1ccc(C(=O)NCCCN)c(NCCc2cccc(F)c2)n1 [N-(3-aminopropyl)(6-(2-cyanophenyl)-2-{[2-(3-fluorophenyl)ethyl]amino}(3-pyridyl))carboxamide] | 0.994 µM
N#Cc1ccccc1-c1ccc(C(=O)NCCCC(N)=O)c(NCCc2cccc(F)c2)n1 [N-(3-carbamoylpropyl)(6-(2-cyanophenyl)-2-{[2-(3-fluorophenyl)ethyl]amino}(3-pyridyl))carboxamide] | 0.185 µM
O=C(NCc1cccnc1)c1ccc(-c2ccccn2)nc1NCCc1ccccn1 [N-(3-pyridylmethyl){6-(2-pyridyl)-2-[(2-(2-pyridyl)ethyl)amino](3-pyridyl)}carboxamide] | 5.38 µM
O=C(NCc1cccnc1)c1ccc(-c2cccnc2)nc1NCCc1ccccn1 [N-(3-pyridylmethyl){6-(3-pyridyl)-2-[(2-(2-pyridyl)ethyl)amino](3-pyridyl)}carboxamide] | 19.1 µM
O=C(NCc1cccnc1)c1ccc(-c2ccncc2)nc1NCCc1ccccn1 [N-(3-pyridylmethyl){6-(4-pyridyl)-2-[(2-(2-pyridyl)ethyl)amino](3-pyridyl)}carboxamide] | 6.56 µM

SMILES | IC50
N#Cc1ccccc1-c1ccc(C(=O)NC(CCCN)C(N)=O)c(NCCc2cccc(F)c2)n1 (centres unmarked) [N-(4-amino-1-carbamoylbutyl)(6-(2-cyanophenyl)-2-{[2-(3-fluorophenyl)ethyl]amino}(3-pyridyl))carboxamide] | 0.59 µM
N#Cc1ccccc1-c1ccc(C(=O)NCCCCN)c(NCCc2cccc(F)c2)n1 [N-(4-aminobutyl)(6-(2-cyanophenyl)-2-{[2-(3-fluorophenyl)ethyl]amino}(3-pyridyl))carboxamide] | 0.416 µM
CC(=O)Nc1ccc(-c2ccc(C(=O)NCc3cccnc3)c(NCCc3ccccn3)n2)cc1 [N-(4-{6-[(2-(2-pyridyl)ethyl)amino]-5-[N-(3-pyridylmethyl)carbamoyl]-2-pyridyl}phenyl)acetamide] | 1.22 µM
N#Cc1ccccc1-c1ccc(C(=O)NCCCCCN)c(NCCc2cccc(F)c2)n1 [N-(5-aminopentyl)(6-(2-cyanophenyl)-2-{[2-(3-fluorophenyl)ethyl]amino}(3-pyridyl))carboxamide] | 0.154 µM
N#Cc1ccccc1-c1ccc(C(=O)NCCCCCCN)c(NCCc2cccc(F)c2)n1 [N-(6-aminohexyl)(6-(2-cyanophenyl)-2-{[2-(3-fluorophenyl)ethyl]amino}(3-pyridyl))carboxamide] | 1.24 µM
Cn1cc(-c2nc(NCCc3cccc(F)c3)c(C(=O)NC[C@H](CO)NC(=O)OC(C)(C)C)cc2F)cn1 [N-((1R)-1-{[(5-fluoro-2-{[2-(3-fluorophenyl)ethyl]amino}-6-(1-methylpyrazol-4-yl)(3-pyridyl))carbonylamino]methyl}-2-hydroxyethyl)(tert-butoxy)carboxamide] | 25.9 µM
CC[C@H](CNC(=O)c1cc(F)c(-c2cnn(C)c2)nc1NCCc1cccc(F)c1)NC(=O)CNC(=O)OC(C)(C)C [N-((1R)-1-{[(5-fluoro-2-{[2-(3-fluorophenyl)ethyl]amino}-6-(1-methylpyrazol-4-yl)(3-pyridyl))carbonylamino]methyl}propyl)-2-[(tert-butoxy)carbonylamino]acetamide] | 3.04 µM
CC[C@H](CNC(=O)c1cc(F)c(-c2cnn(C)c2)nc1NCCc1cccc(F)c1)NC(=O)CN [N-((1R)-1-{[(5-fluoro-2-{[2-(3-fluorophenyl)ethyl]amino}-6-(1-methylpyrazol-4-yl)(3-pyridyl))carbonylamino]methyl}propyl)-2-aminoacetamide] | 0.131 µM
CC[C@H](CNC(=O)c1cc(F)c(-c2cn[nH]c2)nc1NCCc1cccc(F)c1)NC(=O)CNC(=O)OC(C)(C)C [N-((1R)-1-{[(5-fluoro-2-{[2-(3-fluorophenyl)ethyl]amino}-6-pyrazol-4-yl(3-pyridyl))carbonylamino]methyl}propyl)-2-[(tert-butoxy)carbonylamino]acetamide] | 4.32 µM
CC[C@H](CNC(=O)c1cc(F)c(-c2cn[nH]c2)nc1NCCc1cccc(F)c1)NC(=O)CN [N-((1R)-1-{[(5-fluoro-2-{[2-(3-fluorophenyl)ethyl]amino}-6-pyrazol-4-yl(3-pyridyl))carbonylamino]methyl}propyl)-2-aminoacetamide] | 0.16 µM
CC(C)[C@H](CNC(=O)c1ccc(-c2ccccc2C#N)nc1NCCc1cccc(F)c1)NC(=O)CN [N-((1R)-1-{[(6-(2-cyanophenyl)-2-{[2-(3-fluorophenyl)ethyl]amino}(3-pyridyl))carbonylamino]methyl}-2-methylpropyl)-2-aminoacetamide] | 0.939 µM
CC(C)[C@H](CNC(=O)c1ccc(-c2ccccc2C#N)nc1NCCc1cccc(F)c1)NC(=O)CO [N-((1R)-1-{[(6-(2-cyanophenyl)-2-{[2-(3-fluorophenyl)ethyl]amino}(3-pyridyl))carbonylamino]methyl}-2-methylpropyl)-2-hydroxyacetamide] | 0.441 µM
CC(C)C[C@H](CNC(=O)c1ccc(-c2ccccc2C#N)nc1NCCc1cccc(F)c1)NC(=O)CN [N-((1R)-1-{[(6-(2-cyanophenyl)-2-{[2-(3-fluorophenyl)ethyl]amino}(3-pyridyl))carbonylamino]methyl}-3-methylbutyl)-2-aminoacetamide] | 0.913 µM
CC(C)C[C@H](CNC(=O)c1ccc(-c2ccccc2C#N)nc1NCCc1cccc(F)c1)NC(=O)CO [N-((1R)-1-{[(6-(2-cyanophenyl)-2-{[2-(3-fluorophenyl)ethyl]amino}(3-pyridyl))carbonylamino]methyl}-3-methylbutyl)-2-hydroxyacetamide] | 1.17 µM
N#Cc1ccccc1-c1ccc(C(=O)N[C@H](CN)C(N)=O)c(NCCc2cccc(F)c2)n1 [N-((1R)-2-amino-1-carbamoylethyl)(6-(2-cyanophenyl)-2-{[2-(3-fluorophenyl)ethyl]amino}(3-pyridyl))carboxamide] | 0.538 µM
N#Cc1ccccc1-c1ccc(C(=O)NC[C@@H](CN)NC(=O)CN)c(NCCc2cccc(F)c2)n1 [N-((1R)-2-amino-1-{[(6-(2-cyanophenyl)-2-{[2-(3-fluorophenyl)ethyl]amino}(3-pyridyl))carbonylamino]methyl}ethyl)-2-aminoacetamide] | 12.6 µM
N#Cc1ccccc1-c1ccc(C(=O)NC[C@@H](CN)NC(=O)CO)c(NCCc2cccc(F)c2)n1 [N-((1R)-2-amino-1-{[(6-(2-cyanophenyl)-2-{[2-(3-fluorophenyl)ethyl]amino}(3-pyridyl))carbonylamino]methyl}ethyl)-2-hydroxyacetamide] | 10.6 µM
